Assay results: article PMC7391726, “Fatty acid mimetic PBI-4547 restores metabolic homeostasis via GPR84 in mice with non-alcoholic fatty liver disease” (Scientific Reports, 2020)

System: HFD-fed WT mice
Assay: High-fat diet (HFD) mouse model of obesity/NAFLD, WT mice
Assay type: in vivo
From the text: The well-established high-fat diet (HFD) mouse model of obesity was used to study the impact of PBI-4547 on the onset and progression of NAFLD. A 14-week HFD regimen led to significant weight gain in both male and female mice. […] Moreover, PBI-4547 decreased serum triglycerides while enhancing adiponectin levels. […] Of note, the effects of PBI-4547 on bodyweight, food consumption, glucose tolerance, fasting blood glucose, insulin resistance and HOMA-β indices were absent in standard diet-fed mice (Table S1).
Total cholesterol levels were measured using the HDL/LDL/VLDL Cholesterol Assay kit (Abcam) according to manufacturer’s protocol. […] Liver triglycerides were extracted using a modified version of the Folch protocol[49]^, then quantified using a triglyceride colorimetric kit (Cayman Chemical).
WT or Gpr84^−/− mice, as previously described, (aged 10–14 weeks at the beginning of the experiment) were either fed a standard diet (STD) or a high-fat diet (HFD) (Envigo #TD.06414) for 14 weeks. At this point, mice were administered either vehicle (water) or PBI-4547 (10 mg/kg) on a daily basis for 6 (WT study) or 8 (WT vs KO study) weeks by gastric gavage, and were sacrificed thereafter. Liver and WAT tissues were fixed in 10% formalin for histological analyses or flash frozen in liquid nitrogen for RT-PCR analyses. All animal studies were reviewed and approved by the animal care and use committee of the Institut National de la Recherche Scientifique – Armand-Frappier (Laval, QC, Canada) and the University of Ottawa’s Animal Care and Veterinary Services (Ottawa, ON, Canada). Protocols were approved and undertaken according to the Canadian Council on Animal Care guidelines.
Oral glucose tolerance tests (OGTT) were completed 6 weeks after beginning of the treatments. Briefly, mice were fasted for 4–6 h, given a bolus of glucose at […] BW orally, and blood glucose values measured at 0, 15, 30, 60, 120 min. In parallel, a blood sample was obtained at 0, 15, 60 and 120 min for insulin quantification by ELISA (EMD Millipore).
After fixation in formalin, iWAT (inguinal), eWAT (epididymal) and liver sections were embedded in paraffin. Thin section of […] were stained with Hematoxylin and Eosin or Sirius red for analyses. WAT collagen deposition and liver characteristics of NAFLD were quantified histologically by a pathologist (R.C.) in a double-blinded manner. Liver histology was performed on H&E stained slides. WAT collagen deposition was scored using Picro Sirius-Red stained slides. Immunofluorescence-detection of α-SMA in liver sections was performed. Briefly, samples were deparaffinized in a series of xylenes, rehydrated in graded alcohols followed by an antigen-unmasking step by microwaving in Tris-buffer (pH 8.2). Sections were blocked with 10% donkey serum (Vector labs), 1% bovine serum albumin (Sigma) in PBS + 1%Tween for 1 h at room temperature. Slides were incubated overnight at 4 °C with an anti-mouse smooth muscle α-Actin antibody (1:300; Santa Cruz, clone #1A4). Secondary detection was performed using a donkey anti-mouse Alexa Fluor 594 (1:500; Molecular Probes), incubated for 1 h at room temperature. Slides were dehydrated and mounted with fluorescent antifade media containing DAPI (Vector labs). Images were taken at 100X and 200X magnification and representative images are shown.
RNA was extracted and purified as previously described. Real-time quantitative PCR was performed on a CFX96 Touch Real-Time PCR Detection System (Bio-Rad) using TaqMan gene expression assays (Fisher Scientific). qPCR data were analyzed using the 2-^ΔΔCt method, using Gapdh and Hprt as endogenous control. RT-qPCR data were reported as Geometric means ± SEM.
A portion of hepatic tissue (50 mg) was mechanically homogenized in 1 mL H2O/CH3CN (1/1) using a PowerGen 125 homogenizer (Fisher Scientific). The homogenates were centrifuged for 10 min at 5,000×g at 4 °C. Hydrophilic metabolites were lyophilized to remove water for NMR experiments. […]

[1] = HFD mice, 1H-NMR liver metabolomics

**Q.** With CCCCCc1cc(CCCCC)cc(CC(=O)[O-])c1.[Na+] [PBI-4547, 2-[3,5-dipentylphenyl]acetate sodium salt] as the compound, how does the HOMA-IR index (HFD mice, 10 mg/kg daily) read?
**A.** decreased by PBI-4547 to the STD group level

**Q.** And the “degree of hepatic inflammation (histology)” value (HFD mice, 10 mg/kg daily)?
**A.** remained unchanged

**Q.** And the disposition index (HFD mice, 10 mg/kg daily)?
**A.** remained unchanged

**Q.** And the fasting insulin levels (HFD mice, 10 mg/kg daily)?
**A.** lowered

**Q.** And the “hepatic ballooning (histology)” value (HFD mice, 10 mg/kg daily)?
**A.** markedly reduced

**Q.** What about the “hepatic steatosis (histology)” value (HFD mice, 10 mg/kg daily) of the same compound?
**A.** markedly reduced

**Q.** What about the liver total cholesterol (HFD mice, 10 mg/kg daily) of the same compound?
**A.** without affecting

**Q.** And the liver triglyceride levels (HFD mice, 10 mg/kg daily)?
**A.** reduced

**Q.** And the “oral glucose tolerance test (OGTT)” value (HFD mice, 10 mg/kg daily)?
**A.** better glycemic control

**Q.** What about the “overall NAFLD score” value (HFD mice, 10 mg/kg daily) of the same compound?
**A.** significantly improving

**Q.** And the serum adiponectin levels (HFD mice, 10 mg/kg daily)?
**A.** enhancing

**Q.** What about the serum triglycerides (HFD mice, 10 mg/kg daily) of the same compound?
**A.** decreased

**Q.** What about the organ weight (HFD mice, 10 mg/kg daily by gavage) of the same compound?
**A.** without affecting

**Q.** And the bodyweight (HFD mice, 10 mg/kg daily by gavage, 5 weeks after beginning of treatment)?
**A.** significant reduction

**Q.** What about the fasting blood glucose (HFD mice, 10 mg/kg daily, after 6 weeks of treatment) of the same compound?
**A.** decreased

**Q.** What about the “hepatic dysregulation of key amino acids and citric acid cycle intermediates (metabolomics)” value [1] of the same compound?
**A.** corrected

**Q.** And the “hepatic energy metabolism intermediates (metabolomics)” value [1]?
**A.** restored back to normal levels

**Q.** What about the “maximum diameter or average size of adipocytes” value (HFD mice, WAT morphometric analysis) of the same compound?
**A.** did not affect

**Q.** And the “WAT expression of Pgc1a and Ucp1” value (HFD mice, WAT qRT-PCR)?
**A.** induced

**Q.** What about the “WAT expression of resistin and glucose transporters Slc2a2, Slc2a4” value (HFD mice, WAT qRT-PCR) of the same compound?
**A.** increased

**Q.** What about the “WAT expression of vaspin (Serpina12)” value (HFD mice, WAT qRT-PCR) of the same compound?
**A.** completely abolished

**Q.** And the “WAT mRNA of pro-fibrotic (Cola1, Ctgf, Mmp2, Timp1) and pro-inflammatory (Il6, Ccl2) genes” value (HFD mice, WAT qRT-PCR)?
**A.** downregulated

**Q.** What about the “NAD+ in liver” value (HFD mice, liver metabolomics) of the same compound?
**A.** restored high levels

**Q.** And the “hepatic Ucp2 and Ucp3 expression” value (HFD mice, qRT-PCR)?
**A.** highly upregulated

**Q.** And the “hepatic expression of FA metabolism genes Acox1, Cpt1b, Pdk4, Hadha, Cd36” value (HFD mice, qRT-PCR)?
**A.** strong upregulation

**Q.** And the “hepatic expression of glucose metabolism genes Pklr, G6pc, Slc2a2” value (HFD mice, qRT-PCR)?
**A.** normalized

**Q.** And the “liver Adipor2 expression” value (HFD mice, qRT-PCR)?
**A.** downregulated

**Q.** What about the “liver Ctgf mRNA levels” value (HFD mice, qRT-PCR) of the same compound?
**A.** significantly decreased

**Q.** What about the “liver Mmp2 mRNA levels” value (HFD mice, qRT-PCR) of the same compound?
**A.** significantly decreased

**Q.** And the “liver Retn (resistin) expression” value (HFD mice, qRT-PCR)?
**A.** restored to normal levels

**Q.** What about the “liver Serpina12 (vaspin) expression” value (HFD mice, qRT-PCR) of the same compound?
**A.** downregulated

**Q.** And the liver pro-inflammatory genes (HFD mice, qRT-PCR)?
**A.** not modulated

**Q.** What about the “WAT extent of interstitial fibrosis” value (HFD mice, white adipose tissue) of the same compound?
**A.** decreased

**Q.** What about the “WAT immune cell infiltration” value (HFD mice, white adipose tissue) of the same compound?
**A.** decreased

**Q.** And the serum total cholesterol (HFD mice, after four weeks of treatment)?
**A.** returned to similar level as in the HFD group

**Q.** What about the serum total cholesterol (HFD mice, after two weeks of treatment) of the same compound?
**A.** slightly increased

**Q.** What about the HOMA-IR index (WT vs KO study, HFD-fed WT) of the same compound?
**A.** reduced

**Q.** And the “WAT mean adipocyte diameters and area” value (WT vs KO study, HFD-fed WT)?
**A.** remained unchanged

**Q.** And the “fasting blood glucose levels” value (WT vs KO study, HFD-fed WT)?
**A.** downregulated

**Q.** What about the insulin levels (WT vs KO study, HFD-fed WT) of the same compound?
**A.** reduced

**Q.** What about the liver glycogen levels (WT vs KO study, HFD-fed WT) of the same compound?
**A.** increased

**Q.** What about the serum adiponectin (WT vs KO study, HFD-fed WT) of the same compound?
**A.** upregulated

**Q.** What about the serum cholesterol levels (WT vs KO study, HFD-fed WT) of the same compound?
**A.** remained unchanged

**Q.** And the serum triglyceride levels (WT vs KO study, HFD-fed WT)?
**A.** lowered

**Q.** And the “α-SMA positive liver staining (immunofluorescence)” value (WT vs KO study, HFD-fed WT)?
**A.** dramatic drop

**Q.** What about the bodyweight (WT vs KO study, HFD-fed WT, 10 mg/kg daily, 8 weeks) of the same compound?
**A.** decreased

**Q.** What about the OGTT (WT vs KO study, HFD-fed WT, after 6 weeks) of the same compound?
**A.** significant effect

**Q.** What about the “AMPK phosphorylation levels in the liver” value (data not shown) of the same compound?
**A.** promote
